Results: patent US8575201B2 (Boehringer Ingelheim International GmbH, priority 2010, dated 2013)

Experiments:
[1] = tested on: synthesis of LTB4 in human whole blood; assay: Human whole blood LTB4 production inhibition assay; assay type: cell-based; details: calcimycin stimulated, read-out: hWB LTB4 IC50
Experimental: Compounds are additionally tested in a human whole blood assay to determine their ability to inhibit the synthesis of LTB4 in a cellular system. Compounds are combined with heparinized human whole blood and incubated for 15 minutes at 37° C. Calcimycin (20 μM final, prepared in phosphate-buffered saline, pH 7.4) is then added and the mixture is incubated for another 30 minutes at 37° C. The samples are centrifuged for 5 min at low speed (1500×g) and the plasma layer is removed. Plasma LTB4 concentrations are then measured using an antibody-based homogenous time-resolved fluorescence method (CisBio, Bedford, Mass.).

[2] = target: recombinant human FLAP protein (Homo sapiens (Human), UniProt P20292); assay: FLAP binding assay (Scintillation Proximity Assay, displacement of [125I]L-691,831); details: read-out: FLAP SPA IC50
recombinant human FLAP protein, sequence (P20292 whole entry): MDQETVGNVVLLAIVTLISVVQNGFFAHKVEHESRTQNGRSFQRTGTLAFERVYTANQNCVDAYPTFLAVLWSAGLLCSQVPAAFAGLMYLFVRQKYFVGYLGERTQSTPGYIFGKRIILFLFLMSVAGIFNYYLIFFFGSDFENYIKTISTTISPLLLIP
Experimental: Assessment of Biological Properties 1. Binding Assay: Compounds are assessed for the ability to bind to FLAP in a binding assay that measures compound-specific displacement of an iodinated (^125I) FLAP inhibitor via a Scintillation Proximity Assay format (adapted from S. Charleson et al., Mol. Pharmacol., 1992, 41, 873-879). […] The cells are lysed with a Dounce homogenizer and the material is centrifuged at 10,000×g for 10 minutes. The supernatant is then collected and centrifuged at 100,000×g for 60 minutes. To prepare membrane protein for an assay, an aliquot of the 100,000×g pellet is resuspended in 1 ml of buffer A, Dounce homogenized, and finally subjected to polytron mixing (30 seconds). […] Mol. Pharmacol., 41, 873-879, 1992) and finally 50 μl of the bead/protein mixture. (final concentrations: beads, 200 μg/well; protein, 5 μg/well; […] The plates are shaken for 2 h before reading on a Microbeta plate reader.

CC(C)(O)CNc1ccc(-c2nc(C3(c4ccc(-c5cnc(N)nc5)nc4)CCC3)no2)cn1 [Example 12, 1-{[5-(3-{1-[6-(2-aminopyrimidin-5-yl)pyridin-3-yl]cyclobutyl}-1,2,4-oxadiazol-5-yl)pyridin-2-yl]amino}-2-methylpropan-2-ol]
IC50 [1]: 0.14 µM | IC50 [2]: 0.0021 µM

CCOC(=O)CNc1ccc(-c2nc(C3(c4ccc(-c5cnc(N)nc5)nc4)CCC3)no2)cn1 [Example 13, ethyl N-[5-(3-{1-[6-(2-aminopyrimidin-5-yl)pyridin-3-yl]cyclobutyl}-1,2,4-oxadiazol-5-yl)pyridin-2-yl]glycinate]
IC50 [1]: 0.17 µM | IC50 [2]: 0.0039 µM

Nc1ncc(-c2ccc(C3(c4noc(-c5c[nH]nn5)n4)CCC3)cn2)cn1 [Example 14, 5-(5-{1-[5-(1H-1,2,3-triazol-4-yl)-1,2,4-oxadiazol-3-yl]cyclobutyl}pyridin-2-yl)pyrimidin-2-amine]
IC50 [1]: > 5 µM | IC50 [2]: 0.14 µM

CN(C)c1nc(C2(c3ccc(-c4cnc(N)nc4)nc3)CCC2)no1 [Example 15, 5-(5-{1-[5-(dimethylamino)-1,2,4-oxadiazol-3-yl]cyclobutyl}pyridin-2-yl)pyrimidin-2-amine]
IC50 [1]: 2.6 µM | IC50 [2]: 0.28 µM

Nc1ncc(-c2ccc(C3(c4noc(-c5ccc(NCC(=O)O)nc5)n4)CCC3)cn2)cn1 [Example 16, N-[5-(3-{1-[6-(2-aminopyrimidin-5-yl)pyridin-3-yl]cyclobutyl}-1,2,4-oxadiazol-5-yl)pyridin-2-yl]glycine]
IC50 [1]: 2.2 µM | IC50 [2]: 0.011 µM

Nc1ncc(-c2ccc(C3(c4noc(-c5ccc(S(N)(=O)=O)cc5)n4)CCC3)cn2)cn1 [Example 17, 4-(3-{1-[6-(2-aminopyrimidin-5-yl)pyridin-3-yl]cyclobutyl}-1,2,4-oxadiazol-5-yl)benzenesulfonamide]
IC50 [1]: > 5 µM | IC50 [2]: 0.0087 µM

Nc1ncc(-c2ccc(C3(c4noc(-c5ccc(NCC6(O)CC6)nc5)n4)CCC3)cn2)cn1 [Example 18, 1-({[5-(3-{1-[6-(2-aminopyrimidin-5-yl)pyridin-3-yl]cyclobutyl}-1,2,4-oxadiazol-5-yl)pyridin-2-yl]amino}methyl)cyclo-propanol]
IC50 [1]: 0.095 µM | IC50 [2]: 0.0018 µM

Nc1ncc(-c2ccc(C3(c4noc(-c5cccc(S(N)(=O)=O)c5)n4)CCC3)cn2)cn1 [Example 19, 3-(3-{1-[6-(2-aminopyrimidin-5-yl)pyridin-3-yl]cyclobutyl}-1,2,4-oxadiazol-5-yl)benzenesulfonamide]
IC50 [1]: > 5 µM | IC50 [2]: 0.058 µM

Cn1cc(-c2nc(C3(c4ccc(-c5cnc(N)nc5)nc4)CCC3)no2)c(C(F)(F)F)n1 [Example 20, 5-[5-(1-{5-[1-methyl-3-(trifluoromethyl)-1H-pyrazol-4-yl]-1,2,4-oxadiazol-3-yl}cyclobutyl)pyridin-2-yl]pyrimidin-2-amine]
IC50 [1]: 0.53 µM | IC50 [2]: 0.0092 µM

CC(C)(CO)Nc1ccc(-c2nc(C3(c4ccc(-c5cnc(N)nc5)nc4)CCC3)no2)cn1 [Example 21, 2-{[5-(3-{1-[6-(2-aminopyrimidin-5-yl)pyridin-3-yl]cyclobutyl}-1,2,4-oxadiazol-5-yl)pyridin-2-yl]amino}-2-methylpropan-1-ol]
IC50 [1]: 0.25 µM | IC50 [2]: 0.0026 µM

Nc1ncc(-c2ccc(C3(c4noc(-c5ccc(OCCO)nc5)n4)CCC3)cn2)cn1 [Example 22, 2-{[5-(3-{1-[6-(2-aminopyrimidin-5-yl)pyridin-3-yl]cyclobutyl}-1,2,4-oxadiazol-5-yl)pyridin-2-yl]oxy}ethanol]
IC50 [1]: 0.14 µM | IC50 [2]: 0.0025 µM

Nc1ncc(-c2ccc(C3(c4noc(-c5cscn5)n4)CCC3)cn2)cn1 [Example 23, 5-(5-{1-[5-(1,3-thiazol-4-yl)-1,2,4-oxadiazol-3-yl]cyclobutyl}pyridin-2-yl)pyrimidin-2-amine]
IC50 [1]: 0.43 µM | IC50 [2]: 0.026 µM

Nc1ncc(-c2ccc(C3(c4noc(-c5cocn5)n4)CCC3)cn2)cn1 [Example 24, 5-(5-{1-[5-(1,3-oxazol-4-yl)-1,2,4-oxadiazol-3-yl]cyclobutyl}pyridin-2-yl)pyrimidin-2-amine]
IC50 [1]: 1 µM | IC50 [2]: 0.11 µM

Nc1ncc(-c2ccc(C3(c4noc(-c5cnn6cccnc56)n4)CCC3)cn2)cn1 [Example 25, 5-(5-{1-[5-(pyrazolo[1,5-a]pyrimidin-3-yl)-1,2,4-oxadiazol-3-yl]cyclobutyl}pyridin-2-yl)pyrimidin-2-amine]
IC50 [1]: 0.046 µM | IC50 [2]: 0.004 µM

Cn1cc(-c2nc(C3(c4ccc(-c5cnc(N)nc5)nc4)CCC3)no2)ccc1=O [Example 26, 5-(3-{1-[6-(2-aminopyrimidin-5-yl)pyridin-3-yl]cyclobutyl}-1,2,4-oxadiazol-5-yl)-1-methylpyridin-2(1H)-one]
IC50 [1]: 0.73 µM | IC50 [2]: 0.11 µM

Nc1ncc(-c2ccc(C3(c4noc(-c5ccc6nccn6c5)n4)CCC3)cn2)cn1 [Example 27, 5-(5-{1-[5-(imidazo[1,2-a]pyridin-6-yl)-1,2,4-oxadiazol-3-yl]cyclobutyl}pyridin-2-yl)pyrimidin-2-amine]
IC50 [1]: 0.42 µM | IC50 [2]: 0.0124 µM

CC(CO)n1cc(-c2nc(C3(c4ccc(-c5cnc(N)nc5)nc4)CCC3)no2)cn1 (stereo not shown) [Example 29, 2-[4-(3-{1-[6-(2-aminopyrimidin-5-yl)pyridin-3-yl]cyclobutyl}-1,2,4-oxadiazol-5-yl)-1H-pyrazol-1-yl]propan-1-ol]
IC50 [1]: 0.32 µM | IC50 [2]: 0.035 µM

CC(C)(CO)n1cc(-c2nc(C3(c4ccc(-c5cnc(N)nc5)nc4)CCC3)no2)cn1 [Example 30, 2-[4-(3-{1-[6-(2-aminopyrimidin-5-yl)pyridin-3-yl]cyclobutyl}-1,2,4-oxadiazol-5-yl)-1H-pyrazol-1-yl]-2-methylpropan-1-ol]
IC50 [1]: 0.4 µM | IC50 [2]: 0.033 µM

Nc1ncc(-c2ccc(C3(c4noc(-c5ccc(-n6ccnc6)nc5)n4)CCC3)cn2)cn1 [Example 31, 5-[5-(1-{5-[6-(1H-imidazol-1-yl)pyridin-3-yl]-1,2,4-oxadiazol-3-yl}cyclobutyl)pyridin-2-yl]pyrimidin-2-amine]
IC50 [1]: 0.3 µM | IC50 [2]: 0.0019 µM

Nc1ncc(-c2ccc(C3(c4noc(-c5ccc(O)cc5)n4)CCC3)cn2)cn1 [Example 32, 4-(3-{1-[6-(2-aminopyrimidin-5-yl)pyridin-3-yl]cyclobutyl}-1,2,4-oxadiazol-5-yl)phenol]
IC50 [1]: 0.14 µM | IC50 [2]: 0.0029 µM

Nc1ncc(-c2ccc(C3(c4noc(-c5ccc(NC(CO)CO)nc5)n4)CCC3)cn2)cn1 [Example 33, 2-{[5-(3-{1-[6-(2-aminopyrimidin-5-yl)pyridin-3-yl]cyclobutyl}-1,2,4-oxadiazol-5-yl)pyridin-2-yl]amino}propane-1,3-diol]
IC50 [1]: 2.6 µM | IC50 [2]: 0.0022 µM

CN(C)C(=O)[C@@H]1CCCN1c1ccc(-c2nc(C3(c4ccc(-c5cnc(N)nc5)nc4)CCC3)no2)cn1 [Example 34, 1-[5-(3-{1-[6-(2-aminopyrimidin-5-yl)pyridin-3-yl]cyclobutyl}-1,2,4-oxadiazol-5-yl)pyridin-2-yl]-N,N-dimethyl-L-prolinamide]
IC50 [1]: 1.8 µM | IC50 [2]: 0.04 µM

Nc1ncc(-c2ccc(C3(c4noc(-c5ccc(N6CCC[C@H]6C(=O)O)nc5)n4)CCC3)cn2)cn1 [Example 35, 1-[5-(3-{1-[6-(2-aminopyrimidin-5-yl)pyridin-3-yl]cyclobutyl}-1,2,4-oxadiazol-5-yl)pyridin-2-yl]-L-proline]
IC50 [1]: > 5 µM | IC50 [2]: 0.043 µM
